# Measured values reported in ChEMBL document CHEMBL4422615, “Novel non-xanthine antagonist of the A2B adenosine receptor: From HTS hit to lead structure” (Eur J Med Chem, 2019).
# Activity calls are given as the source filed them. No cut-off for these calls is given here.
# How the values were obtained:
# Adenosine receptor A1 = target: T1, Adenosine receptor A1 (Homo sapiens, UniProt P30542); assay: Antagonist activity at recombinant human A1 adenosine receptor expressed in CHO cells after 3 to 4 hrs by luciferase reporter gene assay; assay type: cell-based
# T1 sequence (P30542 whole entry): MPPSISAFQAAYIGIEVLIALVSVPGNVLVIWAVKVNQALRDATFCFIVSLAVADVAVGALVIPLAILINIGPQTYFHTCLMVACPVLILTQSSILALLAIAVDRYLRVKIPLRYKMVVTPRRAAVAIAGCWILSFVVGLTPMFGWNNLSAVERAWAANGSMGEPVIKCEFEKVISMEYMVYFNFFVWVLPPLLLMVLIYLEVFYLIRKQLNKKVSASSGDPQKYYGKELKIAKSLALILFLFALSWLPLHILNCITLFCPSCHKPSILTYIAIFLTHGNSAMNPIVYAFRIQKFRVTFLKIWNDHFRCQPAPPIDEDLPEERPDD
# Cytochrome P450 2D6 = Cytochrome P450 2D6 (Homo sapiens, UniProt P10635); assay: Inhibition of CYP2D6 in human liver microsomes using dextromethorphan as substrate after 15 mins in presence of NADPH by LC-MS/MS analysis; assay type: ADME
# Chain of Cytochrome P450 2D6 (P10635 whole entry): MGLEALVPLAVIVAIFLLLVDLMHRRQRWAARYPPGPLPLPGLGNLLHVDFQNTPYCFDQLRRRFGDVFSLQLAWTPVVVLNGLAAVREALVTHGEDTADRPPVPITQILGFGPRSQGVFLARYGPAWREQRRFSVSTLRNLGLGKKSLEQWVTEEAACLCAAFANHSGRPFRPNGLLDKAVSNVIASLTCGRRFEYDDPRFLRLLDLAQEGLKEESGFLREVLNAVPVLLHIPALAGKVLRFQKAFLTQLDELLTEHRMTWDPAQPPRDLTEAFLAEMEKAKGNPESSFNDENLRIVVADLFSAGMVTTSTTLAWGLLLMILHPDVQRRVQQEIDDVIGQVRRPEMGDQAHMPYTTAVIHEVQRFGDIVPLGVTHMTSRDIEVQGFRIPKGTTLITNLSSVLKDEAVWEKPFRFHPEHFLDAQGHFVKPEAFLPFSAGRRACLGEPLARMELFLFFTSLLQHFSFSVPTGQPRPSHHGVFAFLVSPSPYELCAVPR
# [1] = target: T2, Nuclear receptor subfamily 1 group I member 2 (Homo sapiens, UniProt O75469); assay: Activation of PXR in human HepG2 cells assessed as induction of CYP3A4 expression by luciferase reporter gene assay; assay type: ADME, cell-based
# T2 sequence (O75469 whole entry): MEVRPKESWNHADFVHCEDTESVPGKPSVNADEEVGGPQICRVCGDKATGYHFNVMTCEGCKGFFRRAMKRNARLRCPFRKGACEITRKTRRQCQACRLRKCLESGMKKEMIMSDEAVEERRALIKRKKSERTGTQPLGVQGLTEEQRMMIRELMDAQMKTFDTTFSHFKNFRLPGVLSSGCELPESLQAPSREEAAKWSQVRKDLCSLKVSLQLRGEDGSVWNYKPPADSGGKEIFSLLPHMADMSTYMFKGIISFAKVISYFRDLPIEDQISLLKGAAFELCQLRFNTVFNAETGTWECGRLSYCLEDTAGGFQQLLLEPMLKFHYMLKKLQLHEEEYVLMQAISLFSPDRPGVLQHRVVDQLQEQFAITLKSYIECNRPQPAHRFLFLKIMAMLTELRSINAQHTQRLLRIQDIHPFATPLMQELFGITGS
# [2] = Clearance in dog plasma at 0.3 mg/kg, iv administered as bolus dose by HPLC-MS/MS analysis; assay type: ADME, organism-based, Canis lupus familiaris
# Mus musculus [3] = assay: Antifibrotic activity in silica-induced C57BL/6J mouse pulmonary fibrosis model assessed as reduction in total number of cells in BALF at 100 to 500 mg/kg, bid administered via gavage treated from day 1 until day 7 after silica application; assay type: functional, organism-based
# Mus musculus [4] = assay: Antifibrotic activity in FITC-induced C57BL/6J mouse pulmonary fibrosis model assessed as reduction in IL-6 level in BALF homogenate at 100 to 500 mg/kg, bid administered via gavage pretreated for 45 mins before FITC addition until 72 hrs after FITC application by ELISA; assay type: functional, organism-based
# Cytochrome P450 2C8 = target: T3, Cytochrome P450 2C8 (Homo sapiens, UniProt P10632); assay: Inhibition of CYP2C8 in human liver microsomes using amodiaquine as substrate after 15 mins in presence of NADPH by LC-MS/MS analysis; assay type: ADME
# T3 sequence (P10632 whole entry): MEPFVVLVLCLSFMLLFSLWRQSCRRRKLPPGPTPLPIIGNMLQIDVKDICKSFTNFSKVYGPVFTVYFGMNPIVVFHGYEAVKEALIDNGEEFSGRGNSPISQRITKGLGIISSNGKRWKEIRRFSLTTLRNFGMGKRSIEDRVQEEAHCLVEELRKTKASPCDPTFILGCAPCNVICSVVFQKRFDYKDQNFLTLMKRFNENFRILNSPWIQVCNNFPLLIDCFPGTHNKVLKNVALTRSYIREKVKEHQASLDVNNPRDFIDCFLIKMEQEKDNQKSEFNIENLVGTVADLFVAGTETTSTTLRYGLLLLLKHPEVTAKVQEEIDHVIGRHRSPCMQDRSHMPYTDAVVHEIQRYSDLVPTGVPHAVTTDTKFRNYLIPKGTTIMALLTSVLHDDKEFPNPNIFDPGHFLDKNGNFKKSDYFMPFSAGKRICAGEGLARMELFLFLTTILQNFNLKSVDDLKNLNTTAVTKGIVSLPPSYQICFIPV
# Adenosine receptor A2a = Adenosine receptor A2a (Homo sapiens, UniProt P29274); assay: Displacement of [3H]CGS21680 from human A2A adenosine receptor expressed in HEK293 cell membranes after 120 mins by radioligand displacement assay
# Chain of Adenosine receptor A2a (P29274 whole entry): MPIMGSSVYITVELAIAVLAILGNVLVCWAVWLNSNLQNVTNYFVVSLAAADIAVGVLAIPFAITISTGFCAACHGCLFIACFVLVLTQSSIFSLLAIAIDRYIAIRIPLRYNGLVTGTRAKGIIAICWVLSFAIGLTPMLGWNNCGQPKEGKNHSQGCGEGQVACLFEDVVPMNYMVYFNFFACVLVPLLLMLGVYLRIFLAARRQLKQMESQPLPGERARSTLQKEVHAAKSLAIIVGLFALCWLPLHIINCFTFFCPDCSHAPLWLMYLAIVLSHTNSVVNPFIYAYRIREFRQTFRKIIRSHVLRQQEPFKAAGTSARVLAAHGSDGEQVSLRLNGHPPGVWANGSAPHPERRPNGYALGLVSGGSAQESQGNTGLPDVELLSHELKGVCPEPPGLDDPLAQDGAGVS
# [5] = Dose normalized AUC in mouse at 1 mg/kg, iv administered as bolus dose by HPLC-MS/MS analysis; assay type: ADME, organism-based; settings: in vivo
# [6] = Oral bioavailability in rat at 1 mg/kg for 15 mins by HPLC-MS/MS analysis; assay type: ADME, organism-based; settings: in vivo
# [7] = Apparent permeability from apical side to basolateral side in human Caco2 cells; assay type: ADME, cell-based; settings: Caco-2
# [8] = Volume of distribution at steady state in rat at 0.3 mg/kg, iv administered as infusion for 15 mins by HPLC-MS/MS analysis; assay type: ADME, organism-based; settings: in vivo, read-out: Vdss
# [9] = Half life in dog at 1 mg/kg, po for 15 mins by HPLC-MS/MS analysis; assay type: ADME, organism-based, Canis lupus familiaris; settings: in vivo
# [10] = Clearance in mouse plasma at 0.3 mg/kg, iv administered as bolus dose by HPLC-MS/MS analysis; assay type: ADME, organism-based
# [11] = Volume of distribution at steady state in dog at 0.3 mg/kg, iv administered as infusion for 15 mins by HPLC-MS/MS analysis; assay type: ADME, organism-based, Canis lupus familiaris; settings: in vivo, read-out: Vdss
# Cytochrome P450 1A2 = target: T4, Cytochrome P450 1A2 (Homo sapiens, UniProt P05177); assay: Inhibition of CYP1A2 in human liver microsomes using phenacetin as substrate after 15 mins in presence of NADPH by LC-MS/MS analysis; assay type: ADME
# T4 sequence (P05177 whole entry): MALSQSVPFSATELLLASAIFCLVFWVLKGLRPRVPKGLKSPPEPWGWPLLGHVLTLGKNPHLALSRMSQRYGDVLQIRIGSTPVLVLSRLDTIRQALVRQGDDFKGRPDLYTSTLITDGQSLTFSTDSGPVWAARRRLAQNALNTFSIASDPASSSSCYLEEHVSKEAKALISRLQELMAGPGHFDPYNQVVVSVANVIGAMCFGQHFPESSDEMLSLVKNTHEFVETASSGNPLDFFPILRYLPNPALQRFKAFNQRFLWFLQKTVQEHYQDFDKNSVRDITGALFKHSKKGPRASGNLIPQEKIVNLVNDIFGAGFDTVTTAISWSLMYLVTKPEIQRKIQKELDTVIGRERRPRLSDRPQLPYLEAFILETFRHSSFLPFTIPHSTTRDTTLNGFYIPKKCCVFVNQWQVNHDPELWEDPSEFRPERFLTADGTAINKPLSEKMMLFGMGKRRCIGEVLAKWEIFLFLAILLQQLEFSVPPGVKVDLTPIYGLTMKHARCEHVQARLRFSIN
# [12] = Fraction unbound in mouse plasma by equilibrium dialysis method; assay type: ADME, cell-free
# [13] = Dose normalized AUC in rat at 0.3 mg/kg, iv administered as infusion for 15 mins by HPLC-MS/MS analysis; assay type: ADME, organism-based; settings: in vivo, 0.25 h
smiles,measurement,setting,value
CCn1c(=O)c2c(C)c(C(=O)N3CCC(O)CC3)sc2n(CCC(F)(F)F)c1=O,IC50,Adenosine receptor A1,1.3 µM
same,IC50,Cytochrome P450 2D6,> 20 µM
same,MEC,[1],21 ×10⁻⁶ mol/L
same,clearance,[2],0.4 L/h/kg
same,Activity,Mus musculus [3],inactive
same,Activity,Mus musculus [4],inactive
same,IC50,Cytochrome P450 2C8,> 20 µM
same,Ki,Adenosine receptor A2a,> 1 µM
same,AUC/dose,[5],1 kg·h/L
same,bioavailability,[6],88%
same,Papp A→B,[7],480 nm/s
same,Vd,[8],1.5 L/kg
same,half-life,[9],5.1 h
same,clearance,[10],0.61 L/h/kg
same,Vd,[11],2 L/kg
same,IC50,Cytochrome P450 1A2,> 20 µM
same,fraction unbound,[12],0.3
same,AUC/dose,[13],0.88 kg·h/L
